We go through three compounds from patent US7781469B2, “Arylacetate derivatives having isoxazole skeleton” (Shionogi & Co., Ltd., priority 2005, dated 2010).

Data set [1] addresses T1, human PPARδ (hPPARδ) (Homo sapiens, UniProt Q03181).
T1 construct: (δ: aa 139-C-end; α: aa 167-C-end); expressed in transfected cells
T1 sequence (Q03181 139-441 limits assumed): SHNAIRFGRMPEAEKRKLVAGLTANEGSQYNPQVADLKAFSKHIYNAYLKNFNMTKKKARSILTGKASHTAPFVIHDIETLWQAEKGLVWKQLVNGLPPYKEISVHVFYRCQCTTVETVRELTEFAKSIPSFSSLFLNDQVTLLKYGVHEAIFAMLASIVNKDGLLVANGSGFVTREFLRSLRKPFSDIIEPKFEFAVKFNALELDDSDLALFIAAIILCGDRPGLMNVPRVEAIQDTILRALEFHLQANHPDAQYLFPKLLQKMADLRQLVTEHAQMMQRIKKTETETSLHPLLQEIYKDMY
Kind of data set: Test for transcriptional activity of PPARδ (GAL4 chimeric transcription factor luciferase reporter assay in CHO cells). In kind it is cell-based. The note with it: concentration showing 1/2 of maximum luciferase activity. The text has this: Test Example 1 Test for Transcriptional Activity of PPARδ and α
A chimeric transcription factor assay, which is commonly used to detect nuclear receptor activity, was employed to measure PPAR transcriptional activity. Specifically, two plasmids, one that expresses the fusion protein of DNA binding domain of yeast transcription factor GAL4 and a ligand binding domain of a receptor, and a reporter plasmid were transiently transfected to CHO cells. The activity of the promoter containing a recognition sequence of GAL4 coded on the reporter plasmid was used as a parameter to estimate the activity of the receptor. • Plasmid: The ligand binding domain of human PPARδ (hPPARδ) or α (hPPARα) (δ: aa 139-C-end; α: aa 167-C-end) is obtained by PCR amplification using Human Universal Quick-Clone cDNA (CLONTECH). Each amplified cDNA was subcloned into pCR2.1-TOPO vector (Invitrogen) and the identity of the cDNA clones was confirmed by the DNA sequence. Then, each obtained cDNA fragment was subcloned into pBIND vector (Promega) to construct a plasmid expressing the fusion protein with DNA binding domain of yeast transcription factor GAL4. pG51uc vector (Promega) was used as a reporter plasmid. • Cell culturing and transfection: CHO cells were cultured in 10% FBS-αMEM. With a 96-well plate (Costar), CHO cells, that were dispersed with trypsin treatment, 20000 cells per well and the two plasmids obtained by the above procedure, 25 ng per well, were transfected with FuGene Reagent (Roche) by following the instruction of the manufacture. • Measurement of the transcriptional activity: CHO cells 100 μl per well, which were transfected as above, were dispensed into the wells in which a test compound dissolved in DMSO 0.5 μl was spotted in advance. After the cells and a test compound were cultured together for 24 hours in a CO2 incubator, the luciferase activity was measured by adding luciferase substrates, PicaGene LT2.0 (Toyo ink) 100 μl per well. LUMINOUS CT-9000D (DIA-IATRON) is used to measure the activity.
In general terms: A reporter such as luciferase makes a cellular process visible.

In the case of `O=C(O)Cc1cccc(SCc2noc(-c3ccc(C(F)(F)F)cc3)c2C=NOCCF)c1` [X-6, {3-[4-(2-Fluoroethoxyiminomethyl)-5-(4-trifluoromethylphenyl)isoxazole-3-ylmethylsulfanyl]phenyl}acetic acid], a half-maximal response in data set [1] (EC50) required 9.8 nM.

`CCON=Cc1c(CSc2cc(CC(=O)O)ccc2F)noc1-c1ccc(C(F)(F)F)cc1` [X-8]: in data set [1], the EC50 – broadly, the concentration that produces a half-maximal response – was found to be 9.8 nM.

Turning to `CCON=Cc1c(CSc2cccc(CC(=O)O)c2)noc1-c1ccc(C(F)(F)F)cc1` [X-25], the melting point (commonly the temperature of the solid-liquid transition) is 131 to 133 °C. For the same compound, the midpoint of the response in data set [1], the EC50, lay at 12 nM.
